Experimental data published in patent publication US20240099989A1, “AGENT FOR PREVENTING OR IMPROVING PERIPHERAL NEUROPATHY” (KINKI UNIVERSITY, priority 2021, published 2024).
Like-named read-outs stand apart in the source and are kept apart here.

Test system: Peripheral Neuropathy in a Mouse Caused by Paclitaxel
Format: in vivo, Balb/c mice
Excerpt: (§1) Six to seven-week-old female Balb/c mice were used for the tests as with Example 1. All the mice were acclimated for seven days after arrival. Then, the mice were grouped into the following four groups: a control group, a group receiving paclitaxel, a group receiving xylitol, and a group receiving paclitaxel and xylitol (a group receiving paclitaxel+xylitol). Each group consisted of five mice.
On Day 8 of acclimation, the mice in the group receiving paclitaxel and the group receiving paclitaxel+xylitol were intraperitoneally administered with paclitaxel at a dose of 6 mg/kg. This day was designated as the first day of the administration (Day 0). Thereafter, these mice were intraperitoneally administered with paclitaxel at the same dose on Day 7 and Day 14 for a total of 3 doses.
The mice in the group receiving 100 mg/kg xylitol were orally administered with xylitol at a dose of 100 mg/kg daily from Day 0. The mice in the group receiving paclitaxel+100 mg/kg xylitol were orally administered with xylitol at a dose of 100 mg/kg daily from Day 6 of administration.
A test was performed on the mice in the four groups described in (6) of the present example (Example 2) to examine the effect of xylitol on paresthesia that is caused by a low temperature stimulus. The mice in respective groups were placed on a cold plate set at 10° C., and withdrawal response time (latent time) was measured. It is presumed that a shorter latent time reflects a greater degree of shunning the low temperature stimulus by the cold plate. […]
The mice in the group receiving 100 mg/kg D-threitol were orally administered with D-threitol at a dose of 100 mg/kg daily from Day 0. The mice in the group receiving paclitaxel+100 mg/kg D-threitol were orally administered with D-threitol at a dose of 100 mg/kg daily from Day 6 of administration.
A test was performed on the mice in the four groups described in (4) of the present example (Example 4) to examine the effect of D-threitol on paresthesia that is caused by a low temperature stimulus. The mice in respective groups were placed on a cold plate set at 10° C., and withdrawal response time (latent time) was measured. It is presumed that a shorter latent time reflects a greater degree of shunning the low temperature stimulus by the cold plate.
as §1, with “L-talitol,” for “xylitol,”, “L-talitol” for “xylitol”, “paclitaxel+L-talitol).” for “paclitaxel+xylitol).”
On Day 8 of acclimation, the mice in the group receiving paclitaxel and the group receiving paclitaxel+L-talitol were intraperitoneally administered with paclitaxel at a dose of 6 mg/kg. This day was designated as Day 0 of administration. Thereafter, these mice were intraperitoneally administered with paclitaxel at a daily dose of 6 mg/kg on Day 7 and Day 14.
The mice in the group receiving L-talitol and the group receiving paclitaxel+L-talitol were orally administered with L-talitol at a dose of 5 mg/kg daily from Day 0.
A cold plate test was performed to examine the effect of L-talitol on paresthesia that is caused by a low temperature stimulus. The mice in the four groups described in (4) of the present example (Example 5) were placed on a cold plate set at 10° C., and withdrawal response time (latent time) was measured. It is presumed that a shorter latent time reflects a greater degree of shunning the low temperature stimulus by the cold plate.
On Day 8 of acclimation, the mice in the group receiving paclitaxel and the group receiving paclitaxel+L-talitol were intraperitoneally administered with paclitaxel at a dose of 6 mg/kg. This day was designated as the first day of the administration (Day 0). […]

[1] = 6 mg/kg paclitaxel + 5 mg/kg test substance orally daily from Day 0 (prevention)
[2] = 6 mg/kg paclitaxel + 100 mg/kg orally daily from Day 6, on Day 12, vs group receiving 6 mg/kg paclitaxel

OC[C@H](O)[C@H](O)[C@H](O)[C@@H](O)CO [L-talitol]
withdrawal response time (latent time) [1]: approximately similar to that of the control group
withdrawal response time (latent time) [2]: significantly longer withdrawal response time

OC[C@@H](O)[C@H](O)CO [D-threitol]
withdrawal response time (latent time) [1]: approximately similar to that of the control group
withdrawal response time (latent time) [2]: significantly longer withdrawal response time

OC[C@@H](O)[C@H](O)[C@@H](O)CO [xylitol]
withdrawal response time (latent time) [1]: approximately similar to that of the control group
withdrawal response time (latent time) [2]: significantly longer withdrawal response time
